# From patent publication US20260000496A1, “MATERIALS AND METHODS FOR DRUG-INDUCED GINGIVAL OVERGROWTH” (Optimed Technology, Inc., priority 2019, published 2026)
# Legend:
# [1] = system: MyD88; assay: Western blot of MyD88 in oral keratinocytes; assay type: cell-based, human; settings: treated with CsA and LPS to simulate the disease, FIG. 35
# Experimental: (§1) Cell Culture. Normal human oral keratinocytes (NOKSI) and fibroblast (HOF) cells were maintained in Dulbecco […] Eagle's medium (Sigma-Aldrich, St. Louis, MO, USA) supplemented with 10% fetal bovine serum (Atlas Bio-logicals, Fort Collins, CO, USA) and 100 units/mL penicillin and 100 μg/mL streptomycin (LifeTechnologies, Carlsbad, CA, USA). Cells were grown in incubator at 37° C. in a humidified chamber with 5% CO2.
# Drugs treatment in cell culture. The cells were treated alone or with different combination of lipopolysaccharide, cyclosporine, phenytoin, and folic acid. All of them were purchased from Sigma-Aldrich (St. Louis, MO, USA). Each of them were used from 0 μg/ml to 40 μg/ml and the optimum concentration were found 10 μg/ml.
# Western blot analysis. Cells were seeded in 60 mm plates with a density of 5×10^5 cells per plate and washed briefly with Dulbecco's phosphate-buffered saline (Gibco, Waltham, MA, USA). Whole cell lysates were prepared using RIPA lysis buffer containing protease inhibitor cocktail (Sigma-Aldrich). Total protein concentration was determined using the BCA reagent (Pierce, Waltham, MA, USA). 20 μg of total protein were resolved on sodium dodecyl sulfate-polyacrylamide gel electrophoresis and transferred to polyvinylidenedifluoride membrane and immunoblotted. The blots were incubated for 1 h in 1% bovine serum albumin (BSA) (Sigma-Aldrich) to block the non-specific bindings followed by over-night incubation in primary antibodies (MyD88 and pP65 from Cell Signaling Technology, and human LITAF ThermoFisher Sigma) at 4° C. on shaker. Next day, blots were washed for three times (10 min each) in Tris-buffered saline containing 1% Tween20 (TBST) followed by incubation with secondary antibody (Goat anti-rabbit IgG HRP) with 1:10,000 dilution for 1 h. Following washes, bands were visualized using gel documentation Imaging Systems (BioRad). The band intensities were quantified using software ImageJ (NIH, USA) and relative protein levels were normalized by β-actin (Cell Signaling). To perform the western blot of animal tissue samples, the gingival tissues were collected from both BABLB/c and C57BL/6 mice studies. The soft tissues were separated from the mandibular bone and then crunched. The Bradford assay was performed to measure the protein concentration of each sample. After normalization, 20 μg of whole tissue protein lysate were proceeded for western blot analysis.
# [2] = system: Collagen type I alpha 1 (Col1a1); assay: Collagen (Col1a1) expression in Human Oral Fibroblasts, QPCR; assay type: cell-based; settings: fibroblasts treated with TGF-β, FIG. 1
# Experimental: as §1
# Human Oral Fibroblasts (HOF) cells were seeded in 60 mm plates with a density of 2.5×10^4/cm^2 and treated with condition (CM) media collected from Oral Keratinocytes containing LPS (10 μg/ml), CSA (10 μg/ml), Phenytoin (10 μg/ml), or Folic acid (10 μg/ml) and incubated for 24 hours. The Collagen type I alpha 1 (Col1a1) gene expression was determined by QPCR. HOF cells were treated with rTGF-β, SB-431542 (SB), rTNF-α, or TNF-α inhibitor (TNF-α inh). Quantitative real-time PCR results showing the expression of Col1a1 in HOF cells after the treatment. (p<0.05).
Substance,MyD88 expression in human oral keratinocytes after disease-simulating treatment [1],collagen expression in fibroblasts [2]
Lipopolysaccharide,robustly induce MyD88 expression,–
TGF-β,–,induce collagen expression
